Reference: the supplement of paper PMC10627819

Experiments:
Experiment in all cases: fitness (endpoint OD595 vs no drug) (fraction); higher = more growth
[1] = tested on: S. aureus DSM 20231
Outline: (§1)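 In 384-well plates at 37 °C, cultures began at OD595 0.01 in 30 µl, with 55 µl used for S. pneumoniae. OD595 readings every 30 min for 14 h were corrected by the first reading. Fitness divides the stationary-phase transition optical density by the robust mean of no-drug control wells. The result is capped at 1.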

[2] = tested on: S. pneumoniae D39V
Outline: as §1

[3] = tested on: B. subtilis 168
Outline: as §1
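Also: OD595 on entry to stationary phase over no-drug wells; at most 1.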

CN(C)[C@@H]1C(O)=C(C(N)=O)C(=O)[C@@]2(O)C(O)=C3C(=O)c4c(O)ccc(Cl)c4[C@@](C)(O)[C@H]3C[C@@H]12 [Chlortetracycline] + CO[C@@]12[C@H](COC(N)=O)C3=C(C(=O)C(C)=C(N)C3=O)N1C[C@@H]1N[C@@H]12 [Mitomycin C]
[1], first compound 0.006 µg/mL, one replicate
Conditions	fitness
partner 0.0156 µg/mL	0.65
partner 0.0312 µg/mL	0.64
partner 0.0625 µg/mL	0.542

fitness
Conditions	first compound 0.012 µg/mL	first compound 0.024 µg/mL	first compound 0.048 µg/mL	first compound 0.375 µg/mL	first compound 0.75 µg/mL	first compound 1.5 µg/mL
[1], partner 0.0156 µg/mL	0.55	0.288	0.0746	–	–	–
[1], partner 0.0312 µg/mL	0.52	0.224	0.0614	–	–	–
[1], partner 0.0625 µg/mL	0.384	0.174	0.17	–	–	–
[2], partner 0.001075 µg/mL	0.924	0.895	0.824	–	–	–
[2], partner 0.002 µg/mL	–	–	–	0.0654	0.0249	0.0576
[2], partner 0.00215 µg/mL	0.853	0.832	0.788	–	–	–
[2], partner 0.004 µg/mL	–	–	–	0.0793	0.0699	0.0536
[2], partner 0.0043 µg/mL	0.687	0.713	0.645	–	–	–
[2], partner 0.008 µg/mL	–	–	–	0.0339	0.0265	0.0168

CC(=O)Oc1ccccc1C(=O)O [Acetylsalicylic acid] + COc1ccc(C[C@H](N)C(=O)N[C@H]2[C@@H](O)[C@H](n3cnc4c(N(C)C)ncnc43)O[C@@H]2CO)cc1 [Puromycin]
fitness
Conditions	partner 0.39 µg/mL	partner 0.78 µg/mL	partner 1 µg/mL	partner 1.56 µg/mL	partner 2 µg/mL	partner 4 µg/mL
[1], first compound 250 µg/mL	0.894	0.947	–	0.88	–	–
[1], first compound 500 µg/mL	0.804	0.768	–	0.799	–	–
[2], first compound 250 µg/mL	–	–	≥ 1	–	0.954	0.898
[2], first compound 500 µg/mL	–	–	0.915	–	0.935	0.836
[2], first compound 1000 µg/mL	–	–	0.889	–	0.815	0.622

fitness, [1], one replicate
Conditions	first compound 250 µg/mL	first compound 500 µg/mL	first compound 1000 µg/mL
partner 3.12 µg/mL	0.84	0.791	0.0591
partner 6.24 µg/mL	0.821	0.767	0.0807

CC(=O)Oc1ccccc1C(=O)O [Acetylsalicylic acid] + Cn1nnc(-c2ccc(-c3ccc(N4C[C@H](CO)OC4=O)cc3F)cn2)n1 [Tedizolid]
fitness
Conditions	partner 0.03125 µg/mL	partner 0.0625 µg/mL	partner 0.125 µg/mL	partner 0.25 µg/mL	partner 0.5 µg/mL
[1], first compound 250 µg/mL	–	0.839	0.778	0.403	–
[1], first compound 500 µg/mL	–	–	–	0.327	–
[1], first compound 1000 µg/mL	–	–	–	0.128	–
[2], first compound 250 µg/mL	0.968	0.989	0.864	0.534	0.208
[2], first compound 500 µg/mL	0.989	0.986	0.789	0.472	0.175
[2], first compound 1000 µg/mL	0.966	0.962	0.728	0.385	0.16

CC(=O)Oc1ccccc1C(=O)O [Acetylsalicylic acid] + COc1cccc2c1C(=O)c1c(O)c3c(c(O)c1C2=O)C[C@@](O)(C(=O)CO)C[C@@H]3O[C@H]1C[C@H](N)[C@H](O)[C@H](C)O1 [Doxorubicin]
fitness
Conditions	first compound 250 µg/mL	first compound 500 µg/mL	first compound 1000 µg/mL
[1], partner 0.625 µg/mL	0.835	0.759	0.607
[1], partner 1.25 µg/mL	0.798	0.725	–
[1], partner 2.5 µg/mL	0.783	0.71	0.586
[2], partner 0.25 µg/mL	0.94	0.893	0.724
[2], partner 0.5 µg/mL	0.945	0.904	0.751
[2], partner 1 µg/mL	0.889	0.882	0.763

CN(C)[C@@H]1C(O)=C(C(N)=O)C(=O)[C@@]2(O)C(O)=C3C(=O)c4c(O)ccc(Cl)c4[C@@](C)(O)[C@H]3C[C@@H]12 [Chlortetracycline] + COc1cc(Cc2cnc(N)nc2N)cc(OC)c1OC [Trimethoprim]
one replicate
Conditions	fitness
[1], first compound 0.006 µg/mL, partner 0.125 µg/mL	0.656
[1], first compound 0.006 µg/mL, partner 0.25 µg/mL	0.606
[1], first compound 0.006 µg/mL, partner 0.5 µg/mL	0.509
[1], first compound 0.048 µg/mL, partner 0.125 µg/mL	0.0947
[3], first compound 0.0475 µg/mL, partner 0.1 µg/mL	0.82
[3], first compound 0.0475 µg/mL, partner 0.2 µg/mL	0.735
[3], first compound 0.0475 µg/mL, partner 0.4 µg/mL	0.637
[3], first compound 0.0475 µg/mL, partner 1 µg/mL	0.296
[3], first compound 0.0475 µg/mL, partner 2 µg/mL	0.305
[3], first compound 0.095 µg/mL, partner 0.1 µg/mL	0.81
[3], first compound 0.095 µg/mL, partner 0.2 µg/mL	0.707
[3], first compound 0.095 µg/mL, partner 0.4 µg/mL	0.531
[3], first compound 0.095 µg/mL, partner 1 µg/mL	0.132
[3], first compound 0.095 µg/mL, partner 2 µg/mL	0.119
[3], first compound 0.19 µg/mL, partner 0.1 µg/mL	0.599
[3], first compound 0.19 µg/mL, partner 0.2 µg/mL	0.421
[3], first compound 0.19 µg/mL, partner 0.4 µg/mL	0.279
[3], first compound 0.19 µg/mL, partner 1 µg/mL	0.0652
[3], first compound 0.19 µg/mL, partner 2 µg/mL	0.0699

fitness
Conditions	partner 0.125 µg/mL	partner 0.25 µg/mL	partner 0.5 µg/mL	partner 1 µg/mL
[1], first compound 0.012 µg/mL	0.47	0.545	0.36	0.0767
[1], first compound 0.024 µg/mL	0.159	–	0.171	0.0593
[1], first compound 0.048 µg/mL	–	0.117	0.0724	0.042
[3], first compound 0.0475 µg/mL	0.762	0.62	–	–
[3], first compound 0.095 µg/mL	0.673	0.548	–	–
[3], first compound 0.19 µg/mL	0.52	0.406	0.279	–

CC(=O)Oc1ccccc1C(=O)O [Acetylsalicylic acid] + CO/N=C(\C(=O)N[C@@H]1C(=O)N2C(C(=O)O)=C(COC(C)=O)CS[C@H]12)c1csc(N)n1 [Cefotaxime]
fitness
Conditions	partner 0.0018 µg/mL	partner 0.0035 µg/mL	partner 0.007 µg/mL	partner 0.039 µg/mL	partner 0.078 µg/mL	partner 0.156 µg/mL	partner 0.312 µg/mL
[1], first compound 250 µg/mL	–	–	–	0.706	0.695	0.641	0.605
[1], first compound 500 µg/mL	–	–	–	0.614	0.608	0.561	0.507
[1], first compound 1000 µg/mL	–	–	–	0.509	0.443	0.343	0.148
[2], first compound 250 µg/mL	0.984	0.967	0.936	–	–	–	–
[2], first compound 500 µg/mL	≥ 1	0.992	0.962	–	–	–	–
[2], first compound 1000 µg/mL	0.97	0.89	0.823	–	–	–	–

CC(=O)Oc1ccccc1C(=O)O [Acetylsalicylic acid] + CN(C)[C@@H]1C(O)=C(C(N)=O)C(=O)[C@@]2(O)C(O)=C3C(=O)c4c(O)ccc(Cl)c4[C@@](C)(O)[C@H]3C[C@@H]12 [Chlortetracycline]
[1], partner 0.006 µg/mL, one replicate
Conditions	fitness
first compound 250 µg/mL	0.686
first compound 500 µg/mL	0.525
first compound 1000 µg/mL	0.342

fitness
Conditions	partner 0.012 µg/mL	partner 0.024 µg/mL	partner 0.048 µg/mL	partner 0.375 µg/mL	partner 0.75 µg/mL	partner 1.5 µg/mL
[1], first compound 250 µg/mL	0.525	–	–	–	–	–
[1], first compound 500 µg/mL	0.467	0.221	0.0964	–	–	–
[1], first compound 1000 µg/mL	0.21	0.0899	0.0347	–	–	–
[2], first compound 250 µg/mL	0.842	0.658	0.322	0.123	0.119	0.101
[2], first compound 500 µg/mL	0.831	0.606	0.281	0.129	0.0804	0.138
[2], first compound 1000 µg/mL	0.669	0.47	0.297	0.0772	0.0378	0.0721
